Consider 12 molecules from patent US20230167103A1 (Bayer Aktiengesellschaft, priority 2020, published 2023).

Molecules are shown by their SMILES.

T1 sequence (Q13574 with tags, fused parts or gaps): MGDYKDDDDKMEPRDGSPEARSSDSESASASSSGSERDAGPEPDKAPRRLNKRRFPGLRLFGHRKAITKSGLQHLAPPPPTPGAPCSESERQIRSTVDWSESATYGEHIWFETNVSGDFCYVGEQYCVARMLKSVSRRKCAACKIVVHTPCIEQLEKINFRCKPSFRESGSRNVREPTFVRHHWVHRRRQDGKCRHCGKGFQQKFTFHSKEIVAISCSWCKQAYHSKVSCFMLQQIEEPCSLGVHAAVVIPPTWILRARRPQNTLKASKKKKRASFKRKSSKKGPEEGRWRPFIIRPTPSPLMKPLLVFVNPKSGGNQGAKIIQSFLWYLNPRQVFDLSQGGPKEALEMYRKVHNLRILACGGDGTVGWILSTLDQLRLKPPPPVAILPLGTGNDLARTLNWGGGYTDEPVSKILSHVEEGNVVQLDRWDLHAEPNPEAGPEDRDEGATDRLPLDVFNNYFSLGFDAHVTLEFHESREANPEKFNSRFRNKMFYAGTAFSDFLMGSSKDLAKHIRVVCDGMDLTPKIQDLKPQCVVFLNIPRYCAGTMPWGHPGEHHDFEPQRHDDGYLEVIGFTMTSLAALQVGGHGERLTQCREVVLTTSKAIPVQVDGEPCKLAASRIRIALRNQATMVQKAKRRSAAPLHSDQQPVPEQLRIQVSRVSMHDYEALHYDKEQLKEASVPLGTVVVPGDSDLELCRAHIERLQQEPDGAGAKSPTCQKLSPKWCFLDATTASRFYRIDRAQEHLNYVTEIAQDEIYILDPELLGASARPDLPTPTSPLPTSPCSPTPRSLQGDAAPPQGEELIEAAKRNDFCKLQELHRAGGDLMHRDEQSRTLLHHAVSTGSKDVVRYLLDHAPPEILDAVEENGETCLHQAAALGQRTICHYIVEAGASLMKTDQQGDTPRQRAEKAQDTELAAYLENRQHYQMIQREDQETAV

This experiment has as its target T1, human DGKζ (Homo sapiens, UniProt Q13574).
T1 construct: made in house; host or cells: Sf9 insect cells, baculovirus
Kind of experiment: Human DGKζ kinase activity inhibition assay (ADP-Glo). Format: biochemical. Particulars: example compounds; recombinant full-length human DGKζ, 1,2-dioleoyl-sn-glycerol 7 μM, ATP 55 μM, 20 min at 22° C.; read-out: IC50 values of examples in in vitro human DGKζ kinase activity inhibition assays. The procedure: Human diacylglycerol kinase zeta (DGKζ) inhibitory activity of compounds of the present invention was quantified employing the human DGKζ kinase activity assay as described in the following paragraphs. In essence, the enzyme activity was measured by quantification of the adenosine-di-phosphate (ADP) generated as a co-product of the enzyme reaction via the “ADP-Glo™ Kinase Assay” kit from the company Promega. This detection system works as follows: In a first step the adenosine-tri-phosphate (ATP) not consumed in the kinase reaction is quantitatively converted to cyclic adenosine-mono-phosphate (cAMP) employing an adenylate cyclase (“ADP-Glo-reagent”), then the adenylate cyclase is stopped and the ADP generated in the kinase reaction is converted to ATP, which subsequently generates in a luciferase-based reaction a glow-luminescence signal (“Kinase Detection Reagent”).
C-terminally FLAG-tagged, recombinant full-length human DGKζ (inhouse expressed in baculovirus infected insect cells, purified using anti-Flag pulldown and size exclusion chromatography) was used as enzyme. As an alternative, commercially available enzyme by Carnabio can be used. As substrate for the kinase, 1,2-dioleoyl-sn-glycerol, reconstituted in octyl-β-D-glucopyranoside micelles, was used. […] Subsequently, 22.55 volumes of a 510 mM solution of octyl-β-D-glucopyranoside (Sigma-Aldrich, Cat. #O8001-10G) in 50 mM MOPS buffer (pH 7.4) were added, and the mixture was sonicated in an ultrasonic bath for 20 s. Then 35 volumes of 50 mM MOPS buffer (pH 7.4) were added to yield a solution of 0.28 mM 1,2 dioleoyl-sn-glycerol and 200 mM octyl-β-D-glucopyranoside, which was aliquoted, flash-frozen in liquid nitrogen, and stored at −20° C. until use.
For the assay 50 nl of a 100-fold concentrated solution of the test compound in dimethyl sulfoxide (DMSO, Sigma) was pipetted into either a white 1536-well or a white low-volume 384-well microtiter plate (both Greiner Bio-One, Frickenhausen, Germany). […] The concentration of DGKζ was adjusted depending of the activity of the enzyme lot and was chosen appropriate to have the assay in the linear range, a typical concentration is about 0.1 nM. The reaction was stopped by the addition of 2.5 μL of “ADP-Glo-reagent” (1 to 1.5 diluted with water) and the resulting mixture was incubated at 22° C. for 1 h to convert the ATP not consumed in the kinase reaction completely to cAMP. Subsequently 2.5 μl of the “kinase detection reagent” (1.2 fold more concentrated than recommended by the producer) were added, the resulting mixture was incubated at 22° C. for 1 h and then the luminescence measured with a suitable measurement instrument (e.g. Viewlux™ from Perkin-Elmer). The amount of emitted light was taken as a measure for the amount of ADP generated and thereby for the activity of the DGKζ.
The data were normalised (enzyme reaction without inhibitor=0% inhibition, all other assay components but no enzyme=100% inhibition).
Consider `CC(C(N)=O)N(c1ccc(F)cc1)c1nc(N)c(C(=O)c2cc(C(=O)NC3CCC(C)(C)C3)no2)s1` (racemic) [Example 43, 5-[4-amino-2-(N-(2-amino-1-methyl-2-oxo-ethyl)-4-fluoro-anilino)thiazole-5-carbonyl]-N-(3,3-dimethylcyclopentyl)isoxazole-3-carboxamide], for which the IC50 was found to be 94 nM.
For `CC(C(N)=O)N(c1ccc(F)c(F)c1)c1nc(N)c(C(=O)c2cc(C(=O)NC3(C)CCC3)no2)s1` (racemic) [Example 44, rac-5-[4-amino-2-(N-(2-amino-1-methyl-2-oxo-ethyl)-3,4-difluoro-anilino)thiazole-5-carbonyl]-N-(1-methylcyclobutyl)isoxazole-3-carboxamide] the value was 59 nM; for `CC(C(N)=O)N(c1ccc(F)c(F)c1)c1nc(N)c(C(=O)c2cc(C(=O)NC3CC(F)(F)C3)no2)s1` (racemic) [Example 45, rac-5-[4-amino-2-(N-(2-amino-1-methyl-2-oxo-ethyl)-3,4-difluoro-anilino)thiazole-5-carbonyl]-N-(3,3-difluorocyclobutyl)isoxazole-3-carboxamide], 53 nM.
Regarding `CC(C(N)=O)N(c1ccc(F)c(F)c1)c1nc(N)c(C(=O)c2cc(C(=O)NC3CCCC3)no2)s1` (racemic) [Example 46, rac-5-[4-amino-2-(N-(2-amino-1-methyl-2-oxo-ethyl)-3,4-difluoro-anilino)thiazole-5-carbonyl]-N-cyclopentyl-isoxazole-3-carboxamide], the IC50 was found to be 77 nM.
For `CC(C(N)=O)N(c1ccc(F)cc1)c1nc(N)c(C(=O)c2cc(C3CCCC3)no2)s1` (racemic) [Example 47, rac-2-(N-[4-amino-5-(3-cyclopentylisoxazole-5-carbonyl)thiazol-2-yl]-4-fluoro-anilino)propanamide] the value was 42 nM; for `CC(C(N)=O)N(c1ccc(F)cc1)c1nc(N)c(C(=O)c2cc(OC(F)F)no2)s1` (racemic) [Example 48, rac-2-(N-[4-amino-5-[3-(difluoromethoxy)isoxazole-5-carbonyl]thiazol-2-yl]-4-fluoro-anilino)propanamide], 73 nM.
As to `CC(C)c1noc(C(=O)c2sc(N(c3ccc(F)cc3)C(C)C(N)=O)nc2N)n1` (racemic) [Example 49, rac-2-(N-[4-amino-5-(3-isopropyl-1,2,4-oxadiazole-5-carbonyl)thiazol-2-yl]-4-fluoro-anilino)propanamide], the IC50 stood at 28 nM.
For `CC(C(N)=O)N(c1ccc(F)cc1)c1nc(N)c(C(=O)c2cc(-c3ccccc3)ns2)s1` (racemic) [Example 50, rac-2-(N-[4-amino-5-(3-phenylisothiazole-5-carbonyl)thiazol-2-yl]-4-fluoro-anilino)propanamide] the value was 409 nM.
Turning to `CC(C(N)=O)N(c1ccc(F)cc1)c1nc(N)c(C(=O)c2nc(-c3ccccc3)no2)s1` (racemic) [Example 51, rac-2-(N-[4-amino-5-(3-phenyl-1,2,4-oxadiazole-5-carbonyl)thiazol-2-yl]-4-fluoro-anilino) propanamide], the IC50 was 17 nM.
Next, `Cc1noc(C(=O)c2sc(N(c3ccc(F)cc3)C(C)C(N)=O)nc2N)n1` (racemic) [Example 52, rac-2-(N-[4-amino-5-(3-methyl-1,2,4-oxadiazole-5-carbonyl)thiazol-2-yl]-4-fluoro-anilino)propanamide]: 412 nM; `CC(C(N)=O)N(c1ccc(F)cc1)c1nc(N)c(C(=O)c2nc(C(C)(C)C)no2)s1` (racemic) [Example 53, rac-2-(N-[4-amino-5-(3-tert-butyl-1,2,4-oxadiazole-5-carbonyl)thiazol-2-yl]-4-fluoro-anilino)propanamide]: 25 nM.
Next, `CC(C(N)=O)N(c1ccc(F)cc1)c1nc(N)c(C(=O)c2nc(-c3ccccn3)no2)s1` (racemic) [Example 54, rac-2-(N-[4-amino-5-[3-(2-pyridyl)-1,2,4-oxadiazole-5-carbonyl]thiazol-2-yl]-4-fluoro-anilino)propanamide]: 306 nM.
